Like-named read-outs stand apart in the source and are kept apart here.
Legend:
[1] = system: disturbances of the cardiac rhythm; experiment: Anti-arrhythmic action in the rat (aconitine perfusion); type: in vivo, male rats
Procedure: Male rats weighing 300-350 g were anesthetized intra-peritoneally with 1.20 g/kg of urethane, then tracheotomized and submitted to artificial respiration (40-50 breaths of 3 ml/minute). Needles were implanted subcutaneously so as to record the electro-cardiogram of the rats on the DII derivation signal. The products under test were administered intravenously or orally.
Five minutes after the administration of the product intravenously or 1 hour after administration orally, the jugular vein of the rats was perfused with 10 μg/minute from 0.2 ml of a solution of aconitine, and the time of appearance of disturbances of the cardiac rhythm was noted, (10 μg of aconitine corresponding to a perfusion of 0.2 ml of solution). The results are expressed as a percentage of the extension of the time of appearance of the disturbances of the cardiac rhythm as compared with controls, and as a function of the dose of the product under test.

[2] = target: T1, beta1-adrenergic receptors (Rattus norvegicus, UniProt P18090); experiment: Affinity for beta1-adrenergic receptors ([3H]dihydroalprenolol binding, brain cortex); details: relative to propanolol, [3H]dihydroalprenolol 10^-9 M
T1 construct: 10 cortexes removed from the brains of male rats weighing 150 g on average were homogenized; from tissue; host or cells: rat brain cortex, crude membrane fraction
Procedure: (§1) The technique is modelled on that of Mohler et al [Science., Vol. 198, p. 849-851 (1977)]. 10 cortexes removed from the brains of male rats weighing 150 g on average were homogenized in 90 ml of 0.32M sucrose and after centrifugation of the homogenized mixture at 1,000 g for 20 minutes at 0° C., the supernatant was centrifuged at 30,000 g for 15 minutes at 0° to +4° C. The pellet was suspended in 120 ml of 50 mM Tris-HCl buffer pH 7.7, and centrifuged at 30,000 g for 15 minutes at 0° to +4° C. The new pellet was suspended in 480 ml of 50 mM Krebs Tris-HCl buffer pH 7.7. 2 ml of the suspension were then incubated for 10 minutes at 37° C. in the presence of [^3 H] dihydroalprenolol at a concentration of 10^-9 M, i) alone, ii) with increasing concentrations of the test product or iii) to determine the non-specific binding, with non-radioactive propanolol at a concentration of 10^-5 M. The incubated suspensions were filtered on Whatman GF/C, and the filters were washed three times with 5 ml of Krebs Tris-HCl buffer pH 7.7 at 0° C.
The radioactivity of the filters was measured by liquid scintillation. The affinity of the test product for beta1 -adrenergic receptors is given relative to propanolol as the reference product.
(§2) CD=concentration of propanolol inhibiting 50% of the specific binding of [^3 H]dihydroalprenolol.
CX=concentration of the test product inhibiting 50% of the specific binding of […].
The relative affinity is given by the relation [formula]

[3] = target: T2, beta2-adrenergic receptors (Rattus norvegicus, UniProt P10608); experiment: Affinity for beta2-adrenergic receptors ([3H]dihydroalprenolol binding, cerebella); details: relative to propanolol, [3H]dihydroalprenolol 10^-9 M
T2 construct: The cerebella removed from the brains of male rats weighing 150 g on average were homogenized; from tissue; host or cells: rat cerebellum, crude membrane fraction
Procedure: as §1, with “The technique was modelled on” for “The technique is modelled on”, “et al [Science, Vol. 198,” for “et al [Science., Vol. 198,”, “849-851 (1977)]. The cerebella removed from” for “849-851 (1977)]. 10 cortexes removed from”, “ml of suspension were” for “ml of the suspension were”, “of [^3 H]dihydroalprenolol at a” for “of [^3 H] dihydroalprenolol at a”, “binding, with non-radio active propranolol at a” for “binding, with non-radioactive propanolol at a”
The radioactivity of the filters was measured by liquid scintillation. The affinity of the test product for beta2 -adrenergic receptors was given relative to propanolol as the reference product.
as §2
CX=concentration of the test product inhibiting 50% of the specific binding of [^3 H]dihydroalprenolol.
The relative affinity is given by the relation ARL=100 CD/CX

Rat caudal arteries = experiment: Test of calcium-antagonistic activity in vitro (K+ depolarized caudal arteries); type: cell-based; details: 100 mM K+, 37° C., read-out: IC50, inhibition of the contraction due to K+ ions
Procedure: Calcium chloride was added in a volume of 250 μl to obtain a series of increasing concentrations of Ca^2+ ions ranging from 0.1 to 3.0 mM. The contractions of the arteries were recorded and a control series were thus established. The operation was repeated with the series of CA^2+ ions every 15 minutes and the preparation was washed four times after each series. When a stable response was obtained, the operation with the series of CA^2+ ions was performed in the presence of different concentrations of the test product, until a stable response was obtained.
The contractions of the arteries depend on the entry of Ca^2+ ions into the cells of the smooth muscles, and were caused by the depolarization of the smooth muscle by the K^+ ions and by the action of the noradrenaline released at presynaptic level. By starting the operation again with arteries denervated by the action of 6-OH-dopamine, the specific action due to noradrenaline was eliminated.

mice = experiment: Study of the acute toxicity; type: in vivo; details: oral
Procedure: The lethal doses LD50 of the different compounds tested were evaluated after administration orally to mice. The maximum dose not causing any mortality in 8 days was called the LD0 and the following results were obtained.

arterial blood pressure = experiment: Hypotensive activity on anaesthetized normotensive rats; type: in vivo, Sprague-Dawley male rats; details: 10 mg/kg, jugular vein injection
Procedure: Sprague-Dawley male rats (CR) were anaesthetized intraperitoneally with pentabarbital sodium (60 mg/kg) and a jugular vein was catheterized for the injection of the product, and a cartoid artery was catheterized for recording the arterial blood pressure. The test product was dissolved in 10% ethanol and then injected in a volume of 1 ml/kg.

[4] = read-out: Percentage of prolongation in the time
[5] = iv, read-out: Percentage extension of the time of appearance of disturbances of the cardiac rhythm

T2 sequence (P10608 whole entry): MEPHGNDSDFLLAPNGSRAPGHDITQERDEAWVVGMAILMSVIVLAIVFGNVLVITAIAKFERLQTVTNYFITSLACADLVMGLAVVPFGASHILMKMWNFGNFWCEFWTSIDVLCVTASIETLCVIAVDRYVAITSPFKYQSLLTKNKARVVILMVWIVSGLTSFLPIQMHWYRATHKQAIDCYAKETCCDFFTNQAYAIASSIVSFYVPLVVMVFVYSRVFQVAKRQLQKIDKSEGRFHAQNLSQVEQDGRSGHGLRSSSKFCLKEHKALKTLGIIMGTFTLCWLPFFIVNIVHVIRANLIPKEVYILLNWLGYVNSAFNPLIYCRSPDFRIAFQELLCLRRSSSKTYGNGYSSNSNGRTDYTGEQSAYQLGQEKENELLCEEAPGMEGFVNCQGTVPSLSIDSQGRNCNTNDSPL
T1 sequence (P18090 whole entry): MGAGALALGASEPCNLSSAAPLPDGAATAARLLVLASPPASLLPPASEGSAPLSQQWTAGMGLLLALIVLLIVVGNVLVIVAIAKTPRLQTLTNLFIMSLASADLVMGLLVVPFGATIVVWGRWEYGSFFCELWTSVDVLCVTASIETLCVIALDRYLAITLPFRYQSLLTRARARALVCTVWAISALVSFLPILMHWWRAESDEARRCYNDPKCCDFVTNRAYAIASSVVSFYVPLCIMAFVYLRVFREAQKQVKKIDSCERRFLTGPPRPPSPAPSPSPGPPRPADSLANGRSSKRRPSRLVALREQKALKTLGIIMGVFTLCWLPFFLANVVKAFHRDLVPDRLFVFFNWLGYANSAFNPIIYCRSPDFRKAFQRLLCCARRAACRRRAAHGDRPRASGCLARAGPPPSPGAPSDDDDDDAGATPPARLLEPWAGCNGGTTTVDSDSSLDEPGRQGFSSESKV

Compound	change in vivo at 2.5 mg/kg [1, 4] [%]	change in vivo at 5 mg/kg [1, 4] [%]	change in vivo at 10 mg/kg [1, 4] [%]	ARL (relative affinity for beta1-adrenergic receptors) [2] [%]	ARL (relative affinity for beta2-adrenergic receptors, 100 CD/CX) [3] [%]	IC50 (Rat caudal arteries) [µM]	LD0 (maximum dose not causing any mortality in 8 days) (mice) [mg/kg]	change in vivo at 1 mg/kg [1, 5] [%]	change in vivo at 2.5 mg/kg [1, 5] [%]	change in vivo at 5 mg/kg [1, 5] [%]	variation of the arterial blood pressure, 5 mins after administration (arterial blood pressure; 5 min) [percentage]	variation of the arterial blood pressure, 30 min. after administration (arterial blood pressure; 30 min) [percentage]
Cn1ccc2c(NC(=O)c3ccccc3OCC(O)CNC(C)(C)C)cccc21 (centres unmarked) [Example 34, 2-[3-[1,1-Dimethylethylamino]-2-hydroxypropoxy]-N-(1-methyl-1H-indol-4-yl) benzamide]	12	43	125	44	81	8.8	80					
CCC(C)(C)NCC(O)COc1ccccc1C(=O)Nc1cccc2[nH]ccc12 (centres unmarked) [Example 28, 2-[3-[(1,1-dimethylpropyl)amino]-2-hydroxypropoxy]-N-(1H-indol-4-yl) benzamide]				28	15	2.5	> 400	14	54	95		
CC(C)(C)NCC(O)COc1ccccc1C(=O)Nc1cccc2[nH]ccc12 (centres unmarked) [Example 17, 2-[3-[(1,1-dimethylethyl)amino]-2-hydroxypropoxy]-N-(1H-indol-4-yl) benzamide benzoate]											-55	-13
CCC(C)(C)NCC(O)COc1ccccc1C(=O)Nc1cccc2[nH]ccc12.O=C(O)c1ccccc1 (centres unmarked) [Example 48, 2-[3-[(1,1-Dimethylpropyl)amino]-2-hydroxypropoxy]-N-(1H-indol-4-yl)benzamide benzoate]	53	79		20	27							

From patent publication US5084455A, “Novel indole carboxamides” (Roussel Uclaf, priority 1985, dated 1992)
